Ki data for 3 molecules are collected here from patent US12723063B2, “GIPR-agonist compounds” (Eli Lilly and Company, priority 2019, dated 2026).

A word on the Ki: it is a measure of affinity in units of concentration, obtained from inhibition or displacement.

*1 amine or outer side, *2 acyl side, *3 side chain or, on linkers, in order; H or OH if unused. Where a SMILES comes first, the peptide text is derived from it. Side-chain parts run from the residue outwards. [ ]: non-standard residue; d: D form. The star is where a group is joined. C20 diacid = O=C(O)CCCCCCCCCCCCCCCCCCC(=O)*; γGlu = O=C(O)[C@H](CCC(=O)[*:2])N[*:1]; 4Pal = N[C@@H](Cc1ccncc1)C(=O)O; αMeL = CC(C)C[C@](C)(N)C(=O)O; AEEA = NCCOCCOCC(=O)O; Aib = CC(C)(N)C(=O)O

The target in one experiment is T1, human GcgR (Homo sapiens, UniProt P47871).
T1 construct: expressed in transfected cells; crude membranes
T1 sequence (P47871 26-477): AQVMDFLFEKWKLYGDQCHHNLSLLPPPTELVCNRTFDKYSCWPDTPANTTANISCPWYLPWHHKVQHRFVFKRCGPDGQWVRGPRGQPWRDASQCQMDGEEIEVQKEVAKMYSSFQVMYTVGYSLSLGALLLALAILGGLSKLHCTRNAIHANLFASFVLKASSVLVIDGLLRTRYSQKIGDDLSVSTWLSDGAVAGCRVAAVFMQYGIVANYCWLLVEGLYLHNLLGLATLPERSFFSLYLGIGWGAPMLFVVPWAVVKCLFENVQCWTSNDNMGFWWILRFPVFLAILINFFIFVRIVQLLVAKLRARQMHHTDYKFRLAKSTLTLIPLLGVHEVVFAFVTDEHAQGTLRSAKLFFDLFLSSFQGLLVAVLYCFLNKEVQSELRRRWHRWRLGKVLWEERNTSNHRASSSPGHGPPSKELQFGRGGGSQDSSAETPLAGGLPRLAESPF
The experiment is described as follows: [125I]-Glucagon binding, SPA with WGA beads, 0.1% bacitracin. The settings on record: geometric mean, read-out: hGcgR Ki. Put shortly:
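SPA competition binding with WGA beads on crude membranes from HEK293 cells stably expressing hGcgR. Buffer: 25 mM HEPES pH 7.4, 2.5 mM CaCl2, 1 mM MgCl2, 0.1% bacitracin, 0.003% Tween-20; 10-point 3-fold dilutions, NSB with 1 μM Gcg.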

The target of another experiment is T2, human GIPR (Homo sapiens, UniProt P48546).
T2 construct: expressed in transfected cells; crude membranes
T2 sequence (P48546 22-466): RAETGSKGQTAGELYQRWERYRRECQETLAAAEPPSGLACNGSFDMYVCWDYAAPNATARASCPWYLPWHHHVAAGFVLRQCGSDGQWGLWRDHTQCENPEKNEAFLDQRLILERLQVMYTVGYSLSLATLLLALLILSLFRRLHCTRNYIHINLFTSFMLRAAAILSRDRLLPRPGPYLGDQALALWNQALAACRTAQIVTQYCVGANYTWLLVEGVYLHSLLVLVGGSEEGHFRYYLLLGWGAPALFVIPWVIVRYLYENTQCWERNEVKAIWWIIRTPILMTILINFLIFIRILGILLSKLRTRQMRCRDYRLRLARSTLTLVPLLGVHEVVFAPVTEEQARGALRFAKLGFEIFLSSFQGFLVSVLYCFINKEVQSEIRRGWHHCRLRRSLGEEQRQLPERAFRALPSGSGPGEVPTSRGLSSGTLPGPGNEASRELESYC
The experiment is described as follows: [125I]-GIP binding, SPA with WGA beads, 0.1% bacitracin. The settings on record: geometric mean, read-out: hGIPR Ki. Put shortly:
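Ki values are geometric means (SEM, n independent days), derived from four-parameter nonlinear regression of IC50. Membranes came from hGIPR-expressing CHO cells.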

Take `CC[C@H](C)[C@H](NC(=O)[C@H](Cc1ccccc1)NC(=O)[C@@H](NC(=O)CNC(=O)[C@H](CCC(=O)O)NC(=O)C(C)(C)NC(=O)[C@@H](N)Cc1ccc(O)cc1)[C@@H](C)O)C(=O)N[C@@H](CO)C(=O)N[C@@H](CC(=O)O)C(=O)N[C@@H](Cc1ccc(O)cc1)C(=O)N[C@@H](CO)C(=O)N[C@H](C(=O)N[C@@](C)(CC(C)C)C(=O)N[C@@H](CC(C)C)C(=O)N[C@@H](CC(=O)O)C(=O)N[C@@H](CCCCN)C(=O)N[C@@H](CCCCNC(=O)COCCOCCNC(=O)COCCOCCNC(=O)CC[C@H](NC(=O)CCCCCCCCCCCCCCCCCCC(=O)O)C(=O)O)C(=O)N[C@@H](Cc1c[nH]cn1)C(=O)N[C@@H](CCC(N)=O)C(=O)NC(C)(C)C(=O)N[C@@H](CC(=O)O)C(=O)N[C@@H](Cc1ccccc1)C(=O)N[C@H](C(=O)N[C@@H](CCC(=O)O)C(=O)N[C@@H](Cc1ccncc1)C(=O)N[C@@H](CC(C)C)C(=O)N[C@@H](CC(C)C)C(=O)N[C@@H](C)C(=O)N[C@H](C(=O)NCC(=O)N1CCC[C@H]1C(=O)N[C@@H](CO)C(=O)N[C@@H](CO)C(=O)NCC(=O)N[C@@H](C)C(=O)N1CCC[C@H]1C(=O)N1CCC[C@H]1C(=O)N1CCC[C@H]1C(=O)N[C@@H](CO)C(N)=O)[C@@H](C)O)C(C)C)[C@@H](C)CC` [Example 70] (H-Y[Aib]EGTFISDYSI[αMeL]LDKK([AEEA-AEEA-γGlu-C20 diacid])HQ[Aib]DFVE[4Pal]LLATGPSSGAPPPS-NH2): the values for the Ki at human GcgR and on human GIPR were 857 nM and 0.0421 nM, respectively.
Consider `CC[C@H](C)[C@H](NC(=O)[C@H](Cc1ccccc1)NC(=O)[C@@H](NC(=O)CNC(=O)[C@H](CCC(=O)O)NC(=O)C(C)(C)NC(=O)[C@@H](N)Cc1ccc(O)cc1)[C@@H](C)O)C(=O)N[C@@H](CO)C(=O)N[C@@H](CC(=O)O)C(=O)N[C@@H](Cc1ccc(O)cc1)C(=O)N[C@@H](CO)C(=O)N[C@H](C(=O)N[C@@](C)(CC(C)C)C(=O)N[C@@H](CC(C)C)C(=O)N[C@@H](CC(=O)O)C(=O)N[C@@H](CCCCN)C(=O)N[C@@H](CCCCNC(=O)COCCOCCNC(=O)COCCOCCNC(=O)CC[C@H](NC(=O)CCCCCCCCCCCCCCCCCCC(=O)O)C(=O)O)C(=O)N[C@@H](Cc1c[nH]cn1)C(=O)N[C@@H](CCC(N)=O)C(=O)NC(C)(C)C(=O)N[C@@H](CC(=O)O)C(=O)N[C@@H](Cc1ccccc1)C(=O)N[C@H](C(=O)N[C@@H](CCC(=O)O)C(=O)N[C@@H](Cc1c[nH]c2ccccc12)C(=O)N[C@@H](CC(C)C)C(=O)N[C@@H](CC(C)C)C(=O)N[C@@H](CCC(=O)O)C(=O)N[C@H](C(=O)NCC(=O)N1CCC[C@H]1C(=O)N[C@@H](CO)C(=O)N[C@@H](CO)C(=O)NCC(=O)N[C@@H](C)C(=O)N1CCC[C@H]1C(=O)N1CCC[C@H]1C(=O)N1CCC[C@H]1C(=O)N[C@@H](CO)C(N)=O)[C@@H](C)O)C(C)C)[C@@H](C)CC` [Example 71] (H-Y[Aib]EGTFISDYSI[αMeL]LDKK([AEEA-AEEA-γGlu-C20 diacid])HQ[Aib]DFVEWLLETGPSSGAPPPS-NH2), for which the Ki at human GcgR came out at 102 nM; on human GIPR it was 0.0422 nM.
For `CC[C@H](C)[C@H](NC(=O)[C@H](CC(C)C)NC(=O)[C@@H](NC(=O)CNC(=O)[C@H](CCC(=O)O)NC(=O)C(C)(C)NC(=O)[C@@H](N)Cc1ccc(O)cc1)[C@@H](C)O)C(=O)N[C@@H](CO)C(=O)N[C@@H](CC(=O)O)C(=O)N[C@@H](Cc1ccc(O)cc1)C(=O)N[C@@H](CO)C(=O)N[C@H](C(=O)N[C@@](C)(CC(C)C)C(=O)N[C@@H](CC(C)C)C(=O)N[C@@H](CC(=O)O)C(=O)N[C@@H](CCCCN)C(=O)N[C@@H](CCCCNC(=O)COCCOCCNC(=O)COCCOCCNC(=O)CC[C@H](NC(=O)CCCCCCCCCCCCCCCCCCC(=O)O)C(=O)O)C(=O)N[C@@H](Cc1c[nH]cn1)C(=O)N[C@@H](CCC(N)=O)C(=O)NC(C)(C)C(=O)N[C@@H](CCC(=O)O)C(=O)N[C@@H](Cc1ccccc1)C(=O)N[C@H](C(=O)N[C@@H](CCC(=O)O)C(=O)N[C@@H](Cc1ccc(O)cc1)C(=O)N[C@@H](CC(C)C)C(=O)N[C@@H](CC(C)C)C(=O)N[C@@H](CCC(=O)O)C(=O)N[C@H](C(=O)NCC(=O)N1CCC[C@H]1C(=O)N[C@@H](CO)C(=O)N[C@@H](CO)C(=O)NCC(=O)N[C@@H](C)C(=O)N1CCC[C@H]1C(=O)N1CCC[C@H]1C(=O)N1CCC[C@H]1C(=O)N[C@@H](CO)C(N)=O)[C@@H](C)O)C(C)C)[C@@H](C)CC` [Example 72] (H-Y[Aib]EGTLISDYSI[αMeL]LDKK([AEEA-AEEA-γGlu-C20 diacid])HQ[Aib]EFVEYLLETGPSSGAPPPS-NH2), the inhibition constant (Ki) on human GcgR worked out at 837 nM; on human GIPR, 0.0594 nM.
